Data: paper PMC6696238, “Novel Benzothiazole-Based Ureas as 17β-HSD10 Inhibitors, A Potential Alzheimer’s Disease Treatment” (Molecules, 2019)

Experiments:
17β-HSD10 = molecular target: T1, 17β-HSD10 (Homo sapiens, UniProt Q99714); assay: recombinant 17β-HSD10 enzyme activity assay (primary NADH screen and dose response); assay type: biochemical; design: made in house; details: relative remaining activity, 25 μM compound, six independent measurements ± SEM; read-out: 17β-HSD10 activity in the presence of compound at 25 μM (Primary Screen)
T1 sequence (Q99714 1-261): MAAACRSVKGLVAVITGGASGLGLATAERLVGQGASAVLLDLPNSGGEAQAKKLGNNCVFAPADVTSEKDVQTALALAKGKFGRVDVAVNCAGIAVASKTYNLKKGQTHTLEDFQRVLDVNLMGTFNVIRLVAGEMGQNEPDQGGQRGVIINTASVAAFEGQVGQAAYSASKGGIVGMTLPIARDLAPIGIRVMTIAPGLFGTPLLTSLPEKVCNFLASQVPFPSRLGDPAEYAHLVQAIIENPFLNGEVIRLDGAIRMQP
From the text: In order to reduce attrition rates and improve assay reproducibility we have developed a high throughput screening (HTS) pipeline (Figure 3 [19]). In brief, compounds are screened in the recombinant 17β-HSD10 enzyme activity assay (Table 5, Figure 4). Our best previously published compounds have set the threshold of 40% remaining 17β-HSD10 activity as a minimum standard and if compounds can better this threshold, they are further screened using our orthogonal counter assays, dose response assays and kinetic assessment (Table 5). Finally, if passing these criteria with favourable characteristics, the compounds progress into cellular evaluation through cytotoxicity testing and measuring 17β-HSD10 activity within cells (Table 6).
Full results for the primary nicotinamide adenine dinucleotide (NADH) assay screens are shown in Figure 4 including our four best previously published compounds for comparison (Figure 1).
Purification of 17β-HSD10 protein was performed as described in our previous work.
Compound screening, dose response and mechanism of inhibition experiments were performed as described in Hroch et al. 2016, with the exceptions being an alteration in assay buffer (10 mM Tris HCl (pH 7.4), 150 mM NaCl, 1 mM DTT, 0.005% Tween20, 0.01% BSA) and a change in temperature to 25 °C, to improve enzyme stability and assay reliability as compound solubility improved, as outlined in our previous work.

Row | melting point | remaining activity at 25 µM (17β-HSD10) [%] | Compound
1 | 272 to 273 °C | 63.3 ± 3.42 | COc1ccc2nc(NC(=O)Nc3ccc(O)nc3)sc2c1 [Compound 8, 1-(6-Hydroxypyridin-3-yl)-3-(6-methoxybenzo[d]thiazol-2-yl)urea]
2 | 229 to 230 °C | 110 ± 3.8 | COc1ccc2nc(NC(=O)Nc3ccc(CO)c(Cl)c3)sc2c1 [Compound 11, 1-(3-Chloro-4-(hydroxymethyl)phenyl)-3-(6-methoxybenzo[d]thiazol-2-yl)urea]
3 | 206 to 208 °C | 102 ± 3.65 | O=C(Nc1ccc(O)c(Cl)c1)Nc1nc(-c2ccc(Cl)cc2)cs1 [Compound 73, 1-(3-Chloro-4-hydroxyphenyl)-3-(4-(4-chlorophenyl)thiazol-2-yl)urea]
4 | 203 to 205 °C | 79.2 ± 2.56 | O=C(Nc1ccc(O)c(Cl)c1)NC1Cc2ccccc2C1 [Compound 72, 1-(3-Chloro-4-hydroxyphenyl)-3-(2,3-dihydro-1H-inden-2-yl)urea]
5 | 258 to 260 °C | 55.8 ± 1.54 | O=C(Nc1ccc(O)c(Cl)c1)Nc1nc2c(s1)CCCC2 [Compound 71, 1-(3-Chloro-4-hydroxyphenyl)-3-(4,5,6,7-tetrahydrobenzo[d]thiazol-2-yl)urea]
6 | 224 to 226 °C | 43.8 ± 0.77 | O=C(Nc1ccc(O)c(Cl)c1)Nc1ccc2ncsc2c1 [Compound 76, 1-(Benzo[d]thiazol-6-yl)-3-(3-chloro-4-hydroxyphenyl)urea]
7 | 180 to 181 °C | 82.5 ± 2.39 | COc1ccc2nc(NC(=O)Nc3ccc(O)c(N)c3)sc2c1 [Compound 7, 1-(3-Amino-4-hydroxyphenyl)-3-(6-methoxybenzo[d]thiazol-2-yl)urea]
8 | 220 to 222 °C | 74.5 ± 0.63 | O=C(Nc1ccc(O)c(Cl)c1)Nc1nccs1 [Compound 74, 1-(3-Chloro-4-hydroxyphenyl)-3-(thiazol-2-yl)urea]
9 | 262 to 263 °C | 52.2 ± 3.67 | COc1ccc2nc(NC(=O)Nc3ccc(O)c(C)c3)sc2c1 [Compound 2, 1-(4-Hydroxy-3-methylphenyl)-3-(6-methoxybenzo[d]thiazol-2-yl)urea]
10 | 171 to 172 °C | 106 ± 20.9 | CN(C(=O)Nc1ccc(O)c(Cl)c1)c1nc2ccccc2s1 [Compound 41, 1-(Benzo[d]thiazol-2-yl)-3-(3-chloro-4-hydroxyphenyl)-1-methylurea]
11 | 161.5 to 163.5 °C | 73.3 ± 4.33 | COc1ccc(CCNC(=O)Nc2ccc(O)c(Cl)c2)cc1 [Compound 75, 1-(3-Chloro-4-hydroxyphenyl)-3-(4-methoxyphenethyl)urea]
12 | 310 to 311 °C (dec.) | 117 ± 3.94 | COc1ccc2nc(NC(=O)Nc3ccc(N)c(Cl)c3)sc2c1 [Compound 10, 1-(4-Amino-3-chlorophenyl)-3-(6-methoxybenzo[d]thiazol-2-yl)urea]
13 | 277 to 279 °C | 96.5 ± 2.03 | COc1ccc2nc(NC(=O)Nc3ccc(O)c(C#N)c3)sc2c1 [Compound 4, 1-(3-Cyano-4-hydroxyphenyl)-3-(6-methoxybenzo[d]thiazol-2-yl)urea]

Second part, the molecule before the results:

Row | Compound | melting point | remaining activity at 25 µM (17β-HSD10) [%]
14 | CN(C(=O)N(C)c1nc2ccccc2s1)c1ccc(O)c(Cl)c1 [Compound 49, 1-(Benzo[d]thiazol-2-yl)-3-(3-chloro-4-hydroxyphenyl)-1,3-dimethylurea] | 227 to 228.5 °C | 105 ± 2.21
15 | COc1ccc2nc(NC(=O)NCc3ccc(O)c(O)c3)sc2c1 [Compound 29, 1-(3,4-Dihydroxybenzyl)-3-(6-methoxybenzo[d]thiazol-2-yl)urea] | 141.5 to 142 °C | 63.5 ± 2.58
16 | COc1ccc2nc(NC(c3ccc(F)cc3)P(=O)(OC)OC)sc2c1 (stereo not drawn) [Compound 34, Dimethyl ((4-fluorophenyl)((6-methoxybenzo[d]thiazol-2-yl)amino)methyl) phosphonate, reference compound] | – | 95.4 ± 1.16
17 | COc1ccc2nc(NC(c3ccc(O)cc3)P(=O)(OC)OC)sc2c1 (stereo not drawn) [Compound 35, Dimethyl ((4-hydroxyphenyl)((6-methoxybenzo[d]thiazol-2-yl)amino)methyl) phosphonate, reference compound] | – | 96.6 ± 1.35
18 | COc1ccc2nc(NC(c3ccc(O)c(Cl)c3)P(=O)(OC)OC)sc2c1 (stereo not drawn) [Compound 37, Dimethyl ((3-chloro-4-hydroxyphenyl)((6-methoxybenzo[d]thiazol-2-yl)amino)methyl) phosphonate] | 198 to 199 °C | 97.83 ± 0.88
19 | COc1ccc2nc(NC(=O)Nc3ccc(O)c(C(C)(C)C)c3)sc2c1 [Compound 3, 1-(3-(Tert-butyl)-4-hydroxyphenyl)-3-(6-methoxybenzo[d]thiazol-2-yl)urea] | 259 to 260 °C | 41 ± 0.45
20 | Oc1ccc(Nc2nc3ccc(Cl)cc3s2)cc1Cl [Compound 23, 2-Chloro-4-((6-chlorobenzo[d]thiazol-2-yl)amino)phenol] | 213 to 214.5 °C | 120 ± 13.5
21 | COc1ccc2nc(NC(=O)NCc3ccc(O)c(Cl)c3)sc2c1 [Compound 28, 1-(3-Chloro-4-hydroxybenzyl)-3-(6-methoxybenzo[d]thiazol-2-yl)urea] | 249 to 251 °C | 101 ± 4.6
22 | COc1ccc2nc(NC(=O)Nc3ccc(N)cc3)sc2c1 [Compound 9, 1-(4-Aminophenyl)-3-(6-methoxybenzo[d]thiazol-2-yl)urea] | 304 to 306 °C (dec.) | 105 ± 3.17
23 | COc1ccc2nc(NC(=O)N(C)c3ccc(O)c(Cl)c3)sc2c1 [Compound 46, 1-(3-Chloro-4-hydroxyphenyl)-3-(6-methoxybenzo[d]thiazol-2-yl)-1-methylurea] | 220 °C (dec.) | 97.8 ± 1.32
24 | CN(C(=O)Nc1nc2ccccc2s1)c1ccc(O)c(Cl)c1 [Compound 45, 3-(Benzo[d]thiazol-2-yl)-1-(3-chloro-4-hydroxyphenyl)-1-methylurea] | 139 to 141 °C | 77.3 ± 1.43
25 | COC(=O)c1cc(C(Nc2nc3ccc(OC)cc3s2)P(=O)(OC)OC)ccc1O (stereo not drawn) [Compound 36, Methyl 5-((dimethoxyphosphoryl)((6-methoxybenzo[d]thiazol-2-yl)amino)methyl)-2-hydroxybenzoate, reference compound] | – | 95.9 ± 2.09
26 | COc1ccc2nc(NC(=O)c3ccc(O)c(Cl)c3)sc2c1 [Compound 26] | – | 105 ± 4.99
